Measured values reported in paper PMC7139875, “4-Pyridinio-1,4-Dihydropyridines as Calcium Ion Transport Modulators: Antagonist, Agonist, and Dual Action” (Oxidative Medicine and Cellular Longevity, 2020).
“Also recorded” adds a separate entry of the source. Read-outs that look alike come from different tables or passages of the source. One block for each molecule: values may come before it.

Legend:
[1] = system: Ca2+ ion channel activity evoked by compound 4 in SH-SY5Y cells; test: Inhibitor analysis of Ca2+ ion channel activity evoked by compound 4; assay type: cell-based, human; settings: for Effect on Ca2+ ion channel activity in the presence of compound 4: inhibitor at concentrations from 4 to 100 μM; for inhibition at 100 µM / IC50: Homo sapiens; for inhibition at 100 µM: SH-SY5Y, 15 min preincubation; for IC50: 100 μM compound 4, SH-SY5Y cells, read-out: IC50 for inhibition of Ca2+ ion channel activity evoked by compound 4
Protocol: The intracellular free Ca^2+ concentration [Ca^2+]i was measured in confluent monolayers of SH-SY5Y or […] cells with the Ca^2+-sensitive fluorescent indicator Fluo-4 NW according to the instruction (Fluo-4 NW Calcium Assay Kit, Thermo Fisher Scientific, cat. No. F36206) (as referenced by […] al.. Changes in [Ca^2+]i were measured from the fluorescence emitted at 516 nm due to alternate excitation at 494 nm using the microplate reader Tecan Infinite M1000 (Austria). Intracellular Ca^2+ concentration was calculated from a standard curve with known amounts of free Ca^2+ using the standard Ca^2+-EGTA buffering system (Calcium Calibration Buffer Kit, cat. No.C-3008, Thermo Fisher Scientific). […] The commercial calcium agonist compound Bay […] was used as the reference compound.

[2] = system: carbachol-dependent mobilization of intracellular Ca2+ in SH-SY5Y cells; test: Antagonist effect on carbachol-evoked intracellular Ca2+ mobilization (Fluo-4 NW); assay type: cell-based, human
Protocol: (§1) The intracellular free Ca^2+ concentration [Ca^2+]i was measured in confluent monolayers of SH-SY5Y or A7R5 cells with the Ca^2+-sensitive fluorescent indicator Fluo-4 NW according to the instruction (Fluo-4 NW Calcium Assay Kit, Thermo Fisher Scientific, cat. No. F36206) (as referenced by Vilskersts et al..
The investigation of Ca^2+ channel blocking activity of DHP derivatives was based on the effect of DHP on carbachol evoked intracellular Ca^2+ mobilization in human neuroblastoma cells.
The cells were preincubated in the dark for 15 minutes with the tested compounds at concentrations ranging from 0.16 to 100 μM. The application of carbachol (100 nM) to […] NW loaded SH-SY5Y cells stimulated a classic “biphasic” response. The well-known 3rd generation calcium channel inhibitor amlodipine, which is also claimed to act as antioxidant and free radical scavenger, was used as the positive control (at the concentration range from 20 to 100 μM).
(§2) Changes in [Ca^2+]i were measured from the fluorescence emitted at 516 nm due to alternate excitation at 494 nm using the microplate reader Tecan Infinite M1000 (Austria). Intracellular Ca^2+ concentration was calculated from a standard curve with known amounts of free Ca^2+ using the standard Ca^2+-EGTA buffering system (Calcium Calibration Buffer Kit, cat. No.C-3008, Thermo Fisher Scientific).
The IC50 values for the tested compounds were calculated using GraphPad Prism 4.0 software.

[Ca2+]i in SH-SY5Y cells = Ca2+ channel agonist activity, [Ca2+]i in Fluo-4 NW-loaded cells; assay type: cell-based, human; settings: for Agonist activity (RFU, 100 μM): compound at 100 μM
Protocol: as §1
(§3) For the investigation of Ca^2+ channel agonist activity of the DHP compound, 4 […] NW loaded SH-SY5Y or A7R5 cells were stimulated by the addition of compound 4 at the concentration range from 4 to 100 μM. The well-known calcium channel agonist Bay K8644 was used as the positive control (at the concentration range from 4 to 100 μM).
as §2
(§4) In some experiments, […] NW loaded cells were washed and placed in normal Ca^2+-free HEPES-buffered replacement medium. In Ca^2+ restoration experiments, Ca^2+ was initially absent from the medium and was restored to 1 mM after 870 s of stimulation with compound 4.

[3] = Electrochemical oxidation potentials by cyclic voltammetry; assay type: physicochemical; settings: glassy carbon electrode, vs Ag/Ag+, acetonitrile, 0.1 M TBABF4
Protocol: The cyclic voltammetry experiments were carried out on the PARSTAT 2273 electrochemical system. A stationary glassy carbon disk electrode (d = 0.8 mm) served as the working electrode, while the counter electrode was a Pt wire. The oxidation potentials were measured relative to Ag/Ag^+ reference electrode. Acetonitrile was dried over P2O5 and distilled; the distillate was stored over CaH2 and redistilled just before use. Recrystallized tetrabutylammonium tetrafluoroborate (TBABF4) was used as a supporting electrolyte at 0.1 M concentration.

isolated rat aortic ring = test: Isolated rat aortic ring model, KCl precontracted denuded rings
Protocol: The experimental animal (one rat) was anesthetized with pentobarbital sodium (60 mg/kg i.p.). Once deep anesthesia was achieved, the thoracic aorta was dissected, placed in ice cold Krebs-Henseleit (K-H) buffer (content in mM: NaCl 118, KCl 4.7, CaCl2 2.5, MgCl2 1.64, NaHCO3 24.88, KH2PO4 1.18, glucose 10.0, sodium pyruvate 5.0, and disodium salt of ethylenediaminetetraacetic acid 0.05), cleaned from connective and fatty tissues, and cut into 3-4 mm long rings. Endothelium was mechanically scraped off with the tips of forceps, and the aortic rings were mounted between two stainless steel hooks attached to an isometric force transducer in 20 ml organ bath in K-H buffer bubbled with 95% O2 and 5% CO2 at 37°C (one separate aortic ring was used for each tested compound). Passive tension was adjusted to approximately 40 mN over a 60 min equilibration period. The experiment was started after the equilibration period by adding KCl solution to obtain a concentration of 50 mM. Addition of KCl induced contraction of the aortic rings, and a plateau of contraction was reached about […]. Thereafter, the tested compound solutions in dimethyl sulfoxide were added to the aortic rings in order to obtain the final concentrations in the range of 10^−10-10^−5 M. Changes in the tension were recorded using LabChart Pro software from ADInstruments (https://www.adinstruments.com/products/labchart/labchart-for-research). The EC50 values of the tested compounds were calculated using Prism 3.0 software from GraphPad (GraphPad Software Inc., USA) (https://www.graphpad.com/scientific-software/prism/). The experimental procedures involving experimental animals were carried out in accordance with the guidelines of the European Community, LR local laws and policies, and were approved by the Latvian Animal Protection Ethical Committee, the Food and Veterinary Service, Riga, Latvia.

[Ca2+]i in A7R5 cells = Ca2+ channel agonist activity in A7R5 aorta smooth muscle cells; assay type: cell-based, rat; settings: 20 to 100 μM
Protocol: as §1, §3, §2

[4] = system: Ca2+ response induced by compound 4 in SH-SY5Y cells (RyRs); test: Role of RyRs in Ca2+ response induced by compound 4 (Ca2+-free medium); assay type: cell-based, human
Protocol: as §4
Where indicated, the cells were preincubated with inhibitors of Ca^2+ signaling proteins (amlodipine, nifedipine, nicardipine, mecamylamine, atropine, or 2-aminoethoxydiphenyl borate (2-APB) in dose 100 μM; procaine in dose 10 mM for 15 min, or with 5 μM thapsigargin for 10 min, or with 100 μM ruthenium red for 5 min), followed by stimulation with 100 μM of compound 4. The commercial calcium agonist compound Bay K8644 was used as the reference compound.

[5] = SH-SY5Y cells, 100 nM carbachol, 15 min preincubation
[6] = Homo sapiens, SH-SY5Y cells, 100 nM carbachol, 15 min preincubation, read-out: Antagonist activity (IC50)
[7] = inhibitor 100 μM, 100 μM compound 4
[8] = inhibitor 4 μM, 100 μM compound 4
[9] = inhibitor 20 μM, 100 μM compound 4

SMILES: CN1[C@@H]2CC[C@H]1C[C@@H](OC(=O)C(CO)c1ccccc1)C2 (stereo partly drawn) [Atropine]
Effect on Ca2+ ion channel activity in the presence of compound 4 [1]: no effect

SMILES: COC(=O)C1=C(C)NC(C)=C([N+](=O)[O-])C1c1ccccc1C(F)(F)F (stereo not drawn) [Bay K8644]
Antagonist activity (IC50) [2, 5]: No effect
Agonist activity (RFU, 100 μM) ([Ca2+]i in SH-SY5Y cells): 1553 ± 115 RFU

IC50 [2, 6]: 100 ± 12 µM
SMILES: CCOC(=O)COC(=O)C1=C(C)NC(C)=C(C(=O)OCC(=O)OCC)C1c1ccc[n+](CC(=O)c2ccc([N+](=O)[O-])cc2)c1 [Compound 1]
Agonist activity (RFU, 100 μM) ([Ca2+]i in SH-SY5Y cells): No effect

SMILES: NCCOB(c1ccccc1)c1ccccc1 [Compound 2-APB, 2-aminoethoxydiphenyl borate]
Effect on Ca2+ channel response induced by compound 4 ([1]; pretreatment for 15 min): no effect

Electrooxidation potential [3]: 1.69 V
SMILES: CCOC(=O)CC[n+]1cccc(C2C(C(=O)OCC(=O)OCC)=C(C)NC(C)=C2C(=O)OCC(=O)OCC)c1 [Compound 2]
Antagonist activity (IC50) [2, 5]: lacked any activity; also recorded: no activity; also recorded: No effect
Agonist activity (RFU, 100 μM) ([Ca2+]i in SH-SY5Y cells): No effect

Electrooxidation potential [3]: 1.68 V
IC50 [2, 6]: 3.6 ± 0.3 µM
SMILES: CCOC(=O)COC(=O)C1=C(C)NC(C)=C(C(=O)OCC(=O)OCC)C1c1ccc[n+](CC(=O)c2ccccc2)c1 [Compound 3]
Agonist activity (RFU, 100 μM) ([Ca2+]i in SH-SY5Y cells): No effect

Electrooxidation potential [3]: 1.68 V
IC50 [2, 6]: 12 ± 2 µM
IC50 ([2]; Homo sapiens, Table 5, SH-SY5Y cells, read-out: IC50, antagonist effect on Ca2+ channels activated with carbachol): 12 ± 2 µM
EC50 (isolated rat aortic ring; KCl precontracted denuded rat aortic rings, read-out: Calcium channel blocking activity EC50): 0.691 ± 0.167 µM
SMILES: CCOC(=O)COC(=O)C1=C(C)NC(C)=C(C(=O)OCC(=O)OCC)C1c1ccc[n+](C(C)C(=O)c2ccc(OCc3ccccc3)cc2)c1 (stereo not drawn) [Compound 4]
inhibition at 8 µM ([2]; Homo sapiens, SH-SY5Y, compound at 0,8 μM, read-out: Inhibition (%) of Ca2+ channels activated with carbachol): 4 ± 10%
inhibition at 16 µM ([2]; Homo sapiens, SH-SY5Y, compound at 0,16 μM, read-out: Inhibition (%) of Ca2+ channels activated with carbachol): -16 ± 10%
inhibition at 4 µM ([2]; Homo sapiens, SH-SY5Y, compound at 4 μM, read-out: Inhibition (%) of Ca2+ channels activated with carbachol): 11 ± 12%
inhibition at 20 µM ([2]; Homo sapiens, SH-SY5Y, compound at 20 μM, read-out: Inhibition (%) of Ca2+ channels activated with carbachol): 71 ± 9%
Decrease of intracellular [Ca2+]i signal in the absence of extracellular Ca2+ ([Ca2+]i in SH-SY5Y cells; 100 μM compound, compared to presence of extracellular Ca2+): 50%
Agonist activity (RFU, 100 μM) ([Ca2+]i in SH-SY5Y cells): 14425 ± 1072 RFU
Calcium channel blocking activity relative to amlodipine (times weaker) (isolated rat aortic ring; isolated rat aortic ring model): about 50 times
Agonist effect (contractions of aorta rings) (isolated rat aortic ring; isolated rat aortic rings): no agonist effect
Ca2+ ion channel agonist activity ([Ca2+]i in A7R5 cells): dose-dependent agonist activity

Electrooxidation potential [3]: 1.70 V
SMILES: CCOC(=O)COC(=O)C1=C(C)NC(C)=C(C(=O)OCC(=O)OCC)C1c1cc[n+](CC(=O)c2ccccc2)cc1 [Compound 5]
Antagonist activity (IC50) [2, 5]: lacked any activity; also recorded: no activity; also recorded: No effect
Agonist activity (RFU, 100 μM) ([Ca2+]i in SH-SY5Y cells): No effect

Electrooxidation potential [3]: 1.78 V
IC50 [2, 6]: 100 ± 9 µM
SMILES: CCOC(=O)COC(=O)C1=C(C)NC(C)=C(C(=O)OCC(=O)OCC)C1c1ccc[n+](CC(=O)c2ccc(OC)cc2)c1 [Compound 6]
Antagonist activity relative to amlodipine (times lower) ([2]; SH-SY5Y cells): approximately nine times lower
Agonist activity (RFU, 100 μM) ([Ca2+]i in SH-SY5Y cells): No effect

SMILES: CNC1(C)C2CCC(C2)C1(C)C (stereo not drawn) [Mecamylamine]
Effect on Ca2+ ion channel activity in the presence of compound 4 [1]: no effect

IC50 [1]: > 100 µM
SMILES: COC(=O)C1=C(C)NC(C)=C(C(=O)OCCN(C)Cc2ccccc2)C1c1cccc([N+](=O)[O-])c1 (stereo not drawn) [Nicardipine]
inhibition at 100 µM [1, 7]: 33 ± 8%
Inhibition (%) of Ca2+ ion channel activity evoked by compound 4 [1, 8]: 10 ± 6%
Inhibition (%) of Ca2+ ion channel activity evoked by compound 4 [1, 9]: 11 ± 5%

IC50 [1]: > 100 µM
SMILES: COC(=O)C1=C(C)NC(C)=C(C(=O)OC)C1c1ccccc1[N+](=O)[O-] [Nifedipine]
inhibition at 100 µM [1, 7]: 42 ± 5%
Inhibition (%) of Ca2+ ion channel activity evoked by compound 4 [1, 8]: 7 ± 8%
Inhibition (%) of Ca2+ ion channel activity evoked by compound 4 [1, 9]: 16 ± 10%
Phase of the compound 4 response that is inhibited [1, 7]: inhibited both phases

IC50 ([4]; Homo sapiens, SH-SY5Y, Ca2+-free medium, read-out: IC50 for inhibition of Ca2+ response induced by compound 4): 61 ± 9 µM
SMILES: CCN(CC)CCOC(=O)c1ccc(N)cc1 [Procaine]
inhibition at 6.25 µM ([4]; Homo sapiens, SH-SY5Y, inhibitor 6.25 μM, Ca2+-free medium): 0%
inhibition at 12.5 µM ([4]; Homo sapiens, SH-SY5Y, inhibitor 12.5 μM, Ca2+-free medium): 5 ± 9%
inhibition at 25 µM ([4]; Homo sapiens, SH-SY5Y, inhibitor 25 μM, Ca2+-free medium): 0%
inhibition at 50 µM ([4]; Homo sapiens, SH-SY5Y, inhibitor 50 μM, Ca2+-free medium): 18 ± 6%
inhibition at 100 µM ([4]; Homo sapiens, SH-SY5Y, inhibitor 100 μM, Ca2+-free medium): 98 ± 5%
Ca2+ response induced by compound 4 after preincubation with inhibitor ([4]; inhibitor 10 mM): completely blocked; also recorded: absent

SMILES: N.N.N.N.N.N.N.N.N.N.N.N.N.N.[Cl-].[Cl-].[Cl-].[Cl-].[Cl-].[Cl-].[O-2].[O-2].[Ru+3].[Ru+3].[Ru+4] [Ruthenium, Ruthenium red]
Ca2+ response induced by compound 4 after preincubation with inhibitor ([4]; inhibitor 100 μM): absent

SMILES: C/C=C(/C)C(=O)O[C@H]1C(C)=C2[C@H]([C@@H]1OC(=O)CCCCCCC)[C@@](C)(OC(C)=O)C[C@H](OC(=O)CCC)[C@@]1(O)[C@H]2OC(=O)[C@@]1(C)O [thapsigargin]
Influence on Ca2+ ion increase induced by compound 4 ([1]; 5 μM inhibitor, Ca2+-free medium): no influence
